The subject of experiment [1] is P388 murine leukaemia resistant to doxorubicin. The experiment in a line: Antitumor activity in vivo on P388/DX leukaemia. As to conditions: for T/C: Median survival time of treated mice/Median survival time of controls x 100, at Optimal Dose, i.v. one day after tumor transplantation; for O.D. (Optimal Dose): injected i.v. one day after tumor transplantation, 10^5 cell/mouse transplanted i.v. Details: species or system BD2F1 mice.

Experiment [2] concerns LoVo/DX (colon adenocarcinoma resistant to doxorubicin). The experiment in a line: Colony assay, cytotoxic activity on LoVo/DX cells. The class given is cell-based, human. To be noted: for R.I. (Resistance Index): (IC50 Lovo/DX)/(IC50 LoVo); for IC50: Homo sapiens, LoVo/DX, Colony assay: 4 h treatment, concentration inhibiting 50% colony formation. An excerpt:
(§1) The cytotoxic activity is reported as IC50, the concentration inhibiting 50% of colony formation, calculated on concentration response curves. Resistance index R.I. is the ratio between the IC50 on resistant cells and the IC50 on sensitive cells.

The subject of experiment [3] is LoVo (colon adenocarcinoma). The experiment in a line: Colony assay, cytotoxic activity on LoVo cells. In kind it is cell-based. As to conditions: Homo sapiens, Colony assay: 4 h treatment, concentration inhibiting 50% colony formation.
Excerpt: as §1

In brackets after ≈: the same amount, converted by molar mass.

The term T/C denotes the ratio of treated to control. The IC50 is the concentration at which inhibition is half-maximal. Low values mean greater potency in that assay, high ones weaker potency in that assay. Turning to `CC(=O)[C@]1(O)Cc2c(O)c3c(c(O)c2[C@@H](O[C@H]2C[C@H](N)[C@H](OS(C)(=O)=O)[C@H](C)O2)C1)C(=O)c1ccccc1C3=O` [Compound 1b, 4-demethoxy-4'-O-methansulfonyldaunorubicin], in experiment [1], the T/C was found to be 133% and the “O.D. (Optimal Dose)” value came out at 8.1 mg/kg. In addition, in experiment [2], the “R.I. (Resistance Index)” value was determined as 5.8 and half-maximal inhibition (IC50) required 0.0605 µg/mL (≈ 0.105 µM). For the same compound, in experiment [3], inhibition was half-maximal at 0.0105 µg/mL (≈ 0.0182 µM) (IC50).

Consider `COc1cccc2c1C(=O)c1c(O)c3c(c(O)c1C2=O)C[C@@](O)(C(=O)CO)C[C@@H]3O[C@H]1C[C@H](N)[C@H](O)[C@H](C)O1` [doxorubicin, reference compound], for which the “O.D. (Optimal Dose)” value in experiment [1] turned out to be 16.9 mg/kg. The IC50 in experiment [2] was found to be 2.55 µg/mL (≈ 4.7 µM); in experiment [3], 0.049 µg/mL (≈ 0.0902 µM).

As for `COc1cccc2c1C(=O)c1c(O)c3c(c(O)c1C2=O)C[C@@](O)(C(=O)CO)C[C@@H]3O[C@H]1C[C@H](N)[C@H](OS(C)(=O)=O)[C@H](C)O1` [Compound 2a, 4'-O-methansulfonyldoxorubicin], in experiment [1], the T/C is on record as 137% and the “O.D. (Optimal Dose)” value came out at 40.0 mg/kg. In addition, in experiment [2], the “R.I. (Resistance Index)” value was 104.0 and it took 1.8 µg/mL (≈ 2.9 µM) to reach half-maximal inhibition (IC50). This compound also showed an IC50 in experiment [3] of 0.0173 µg/mL (≈ 0.0278 µM).

The values above are taken from EP0683787B1, “4'-O-SULFONYL-ANTHRACYCLINE DERIVATIVES” (PHARMACIA & UPJOHN S.p.A., priority 1993, dated 1995).
